Assays:
Bcl-2 [1] = molecular target: T1, Bcl-2 (Homo sapiens (Human), UniProt P10415); experiment: biochemical; conditions: Biochemical activity (IC50, nM) BCL-2
Bcl-2 [2] = molecular target: T1, Bcl-2

SMILES	IC50 (Bcl-2 [1]) [nM]	folds less potent than its analog in cellular assay (RS4;11 cells) [folds]	folds less potent than its analog in biochemical assay (Bcl-2 [2]) [folds]
O=C(NS(=O)(=O)c1ccc(NCC2CCOCC2)c([N+](=O)[O-])c1)c1ccc(N2CCC3(CCC(N4CCC[C@H]4c4ccccc4C4CC4)CC3)C2)cc1Oc1cnc2[nH]ccc2c1 (stereo partly drawn) [Example F42, (S)-2-((1H-pyrrolo[2,3-b]pyridin-5-yl)oxy)-4-(8-(2-(2-cyclopropylphenyl)pyrrolidin-1-yl)-2-azaspiro[4.5]decan-2-yl)-N-((3-nitro-4-(((tetrahydro-2H-pyran-4-yl)methyl)amino)phenyl)sulfonyl)benzamide]	44		
O=C(NS(=O)(=O)c1ccc(NCC2CCOCC2)c([N+](=O)[O-])c1)c1ccc(N2CC3(CN(CC4CCCN4c4ccccc4C4CC4)C3)C2)cc1Oc1cnc2[nH]ccc2c1 (stereo not drawn) [Example F114, 2-((1H-pyrrolo[2,3-b]pyridin-5-yl)oxy)-4-(6-((1-(2-cyclopropylphenyl)pyrrolidin-2-yl)methyl)-2,6-diazaspiro[3.3]heptan-2-yl)-N-((3-nitro-4-(((tetrahydro-2H-pyran-4-yl)methyl)amino)phenyl)sulfonyl)benzamide]		15 to 22	28 to 80
